Our source for the MIC values is patent publication US10471043B2, “Compounds and methods of treating bacterial infections” (ULTUPHARMA AB, priority 2015, dated 2019).

The test system of one test is P. aeruginosa. The test is described as follows: MIC panel of Gram-negative bacteria (Table 7). The test is classed as cell-based. The note with it: Pseudomonas aeruginosa.
A further test concerns S. epidermidis. The test can be described thus: MIC panel of Gram-negative bacteria (Table 7). The test is classed as cell-based. The note with it: Staphylococcus epidermidis; EN0456 S. epidermidis G+ PKL 3694.

SMILES strings stand for the structures. In brackets after ≈: the same amount, converted by molar mass.

By MIC is commonly meant the lowest concentration found to suppress growth. The low end stands for greater potency, the high end for weaker potency. Consider `CCCCCCCCCC1CC(O)=C(C(=O)CCC)C(=O)O1` (centres unmarked) [Ex. 1, 3-Butyryl-6-nonyl-4-hydroxy-5,6-dihydro-2H-pyran-2-one], for which the minimal inhibitory concentration (MIC) is above 64 µg/mL against P. aeruginosa (EN004 P. aeruginosa WT, ENABLE Primary MIC panel); 2 µg/mL (≈ 6.44 µM) against P. aeruginosa (EN005 P. aeruginosa Efflux mut, ENABLE Primary MIC panel); above 64 µg/mL against P. aeruginosa (EN0014 P. aeruginosa, ENABLE L2C MIC panel); above 64 µg/mL with P. aeruginosa (EN0015 P. aeruginosa Efflux mut, ENABLE L2C MIC panel); above 64 µg/mL in the test with P. aeruginosa (EN0422 P. aeruginosa G−); above 64 µg/mL in the test on P. aeruginosa (EN0459 P. aeruginosa G− PKL 3699). In addition, the values for the minimum inhibitory concentration (MIC) against P. aeruginosa (EN0460 P. aeruginosa G− PKL 3704) and with S. epidermidis were above 64 µg/mL and 1 µg/mL (≈ 3.22 µM), respectively.
